Source: paper PMC3053401, “Renal Effects of the Novel Selective Adenosine A1 Receptor Blocker SLV329 in Experimental Liver Cirrhosis in Rats” (PLoS ONE, 2011)

Tests used:
[1] = target: T1, Adenosine A3 receptor (Homo sapiens, UniProt P0DMS8); assay: radioligand displacement, filtration, Cheng-Prusoff; assay type: binding; conditions: [3H]AB-MECA; receptor preparation from HEK293 cells
T1 construct: gene ADORA3; cloned human receptor in HEK293 cells; cells provided by Cerep
T1 sequence (P0DMS8 1-318): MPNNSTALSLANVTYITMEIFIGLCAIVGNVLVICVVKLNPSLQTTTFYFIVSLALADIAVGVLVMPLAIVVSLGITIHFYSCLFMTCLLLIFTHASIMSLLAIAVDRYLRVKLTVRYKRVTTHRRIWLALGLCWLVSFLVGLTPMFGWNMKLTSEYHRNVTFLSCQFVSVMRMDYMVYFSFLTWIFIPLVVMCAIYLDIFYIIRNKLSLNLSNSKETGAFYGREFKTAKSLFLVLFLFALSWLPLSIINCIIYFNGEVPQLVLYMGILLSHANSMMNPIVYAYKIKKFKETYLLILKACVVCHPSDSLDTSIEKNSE
Excerpt: radioligand displacement, filtration, Cheng-Prusoff on Adenosine A3 receptor

[2] = target: T2, Adenosine A2A receptor (Homo sapiens, UniProt P29274); assay: as above; assay type: binding; conditions: [3H]CGS21680; receptor preparation from HEK293 cells
T2 construct: gene ADORA2A; cloned human receptor in HEK293 cells; cells provided by Cerep
T2 sequence (P29274 whole entry): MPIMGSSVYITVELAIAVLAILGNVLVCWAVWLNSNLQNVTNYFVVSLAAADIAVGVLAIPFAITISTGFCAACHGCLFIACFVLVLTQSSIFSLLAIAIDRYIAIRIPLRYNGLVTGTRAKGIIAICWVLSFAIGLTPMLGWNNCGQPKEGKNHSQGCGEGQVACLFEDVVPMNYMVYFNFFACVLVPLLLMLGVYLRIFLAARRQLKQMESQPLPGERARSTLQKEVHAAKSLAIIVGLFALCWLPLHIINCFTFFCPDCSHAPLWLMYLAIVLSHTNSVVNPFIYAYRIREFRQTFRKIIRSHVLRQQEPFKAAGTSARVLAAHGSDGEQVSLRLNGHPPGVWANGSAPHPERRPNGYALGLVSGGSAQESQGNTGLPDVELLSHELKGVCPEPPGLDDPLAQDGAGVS
Excerpt: radioligand displacement, filtration, Cheng-Prusoff on Adenosine A2A receptor

[3] = target: T3, Adenosine A1 receptor (A1R) (Homo sapiens, UniProt P30542); assay: as above; assay type: binding; conditions: [3H]DPCPX; receptor preparation from CHO cells; antagonist
T3 construct: gene ADORA1; cloned human receptor in CHO cells; cells provided by Cerep
T3 sequence (P30542 1-326): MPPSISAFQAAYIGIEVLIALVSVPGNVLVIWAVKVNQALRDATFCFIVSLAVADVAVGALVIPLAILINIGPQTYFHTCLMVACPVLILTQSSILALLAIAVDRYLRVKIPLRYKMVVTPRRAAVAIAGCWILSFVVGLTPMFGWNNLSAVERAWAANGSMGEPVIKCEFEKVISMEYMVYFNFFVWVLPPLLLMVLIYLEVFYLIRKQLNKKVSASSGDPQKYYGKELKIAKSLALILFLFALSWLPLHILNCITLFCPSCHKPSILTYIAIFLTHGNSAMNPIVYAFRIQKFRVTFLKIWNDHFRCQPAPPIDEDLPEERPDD
Excerpt: radioligand displacement, filtration, Cheng-Prusoff on Adenosine A1 receptor (A1R)

[4] = target: T4, Phosphodiesterase 4 enzyme; assay: radiometric enzyme inhibition assay, scintillation counting; assay type: biochemical; conditions: [3H]cAMP substrate; enzyme preparation from U-937 cells
T4 construct: gene PDE4A; native enzyme preparation from U-937 cells; provided by Cerep
Excerpt: radiometric enzyme inhibition assay, scintillation counting on Phosphodiesterase 4 enzyme

[5] = target: T5, Adenosine A2B receptor (Homo sapiens, UniProt P29275); assay: radioligand displacement, filtration, Cheng-Prusoff; assay type: binding; conditions: [3H]DPCPX; receptor preparation from HEK293 cells
T5 construct: gene ADORA2B; cloned human receptor in HEK293 cells; cells provided by Cerep
T5 sequence (P29275 1-332): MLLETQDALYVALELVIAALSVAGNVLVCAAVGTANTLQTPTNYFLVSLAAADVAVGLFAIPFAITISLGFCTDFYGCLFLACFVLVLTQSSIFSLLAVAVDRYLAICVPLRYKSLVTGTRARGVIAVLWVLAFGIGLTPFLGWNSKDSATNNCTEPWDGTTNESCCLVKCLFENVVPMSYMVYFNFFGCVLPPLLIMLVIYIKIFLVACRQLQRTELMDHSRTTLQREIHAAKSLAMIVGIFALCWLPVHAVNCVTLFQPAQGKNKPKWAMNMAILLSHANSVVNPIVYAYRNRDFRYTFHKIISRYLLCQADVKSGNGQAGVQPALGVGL
Excerpt: radioligand displacement, filtration, Cheng-Prusoff on Adenosine A2B receptor

[6] = target: T6, Phosphodiesterase 4 rolipram binding; assay: as above; conditions: [3H]rolipram; total brain; high-affinity rolipram-binding site
T6 construct: gene Pde4a; provided by Cerep
Excerpt: radioligand displacement, filtration, Cheng-Prusoff on Phosphodiesterase 4 rolipram binding

## SLV329
[1]
  SLV329 Affinity: 6.9±0.1
[2]
  SLV329 Affinity: 7.2±0.2
[3]
  SLV329 Affinity: 9.2±0.2
[4]
  SLV329 Affinity: 5.4±0.1
[5]
  SLV329 Affinity: 6.3±0.1
[6]
  SLV329 Affinity: 6.1±0.2
